Reference: patent publication US20260070922A1, “PYRAZOLE AND IMIDAZOLE DERIVATIVES AS DUAL OREXIN AND KAPPA-OPIOID RECEPTORS MODULATORS COMPOSITION, METHODS FOR TREATING NEUROLOGICAL AND PSYCHIATRIC DISORDERS” (HAGER BIOSCIENCES, LLC, priority 2022, published 2026)

Key:
[1] = target: T1, Orexin type 1 (OX1R) receptor (Homo sapiens, UniProt O43613); assay: In vitro orexin antagonism assay: intracellular calcium measurement (FLIPR), orexin-A 3 nM as agonist; format: cell-based
T1 construct: expressed in transfected cells; host or cells: CHO cells (G418 selection)
T1 sequence (O43613 1-425): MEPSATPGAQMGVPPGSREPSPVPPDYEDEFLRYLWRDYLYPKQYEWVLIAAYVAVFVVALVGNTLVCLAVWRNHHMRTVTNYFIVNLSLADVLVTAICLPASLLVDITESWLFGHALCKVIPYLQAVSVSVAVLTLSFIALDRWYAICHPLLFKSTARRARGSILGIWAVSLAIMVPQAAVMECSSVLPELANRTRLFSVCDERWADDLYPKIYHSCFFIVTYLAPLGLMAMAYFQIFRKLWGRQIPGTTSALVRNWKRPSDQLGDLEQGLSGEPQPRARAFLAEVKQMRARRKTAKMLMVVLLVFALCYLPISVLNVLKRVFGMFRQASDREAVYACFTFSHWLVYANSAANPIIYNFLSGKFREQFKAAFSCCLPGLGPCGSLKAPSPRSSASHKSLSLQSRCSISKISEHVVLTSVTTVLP
Method in brief: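 CHO cells expressing the human orexin receptor were loaded with 3 μM fluo-4 AM plus 5 mM probenecid, then exposed to antagonist for 120 min before 3 nM orexin-A (final) was added on a FLIPR.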

[2] = target: T2, human orexin-2 receptor (OX2R) (Homo sapiens, UniProt O43614); assay: as above; format: cell-based
T2 construct: expressed in transfected cells; host or cells: CHO cells (G418 selection)
T2 sequence (O43614 1-444): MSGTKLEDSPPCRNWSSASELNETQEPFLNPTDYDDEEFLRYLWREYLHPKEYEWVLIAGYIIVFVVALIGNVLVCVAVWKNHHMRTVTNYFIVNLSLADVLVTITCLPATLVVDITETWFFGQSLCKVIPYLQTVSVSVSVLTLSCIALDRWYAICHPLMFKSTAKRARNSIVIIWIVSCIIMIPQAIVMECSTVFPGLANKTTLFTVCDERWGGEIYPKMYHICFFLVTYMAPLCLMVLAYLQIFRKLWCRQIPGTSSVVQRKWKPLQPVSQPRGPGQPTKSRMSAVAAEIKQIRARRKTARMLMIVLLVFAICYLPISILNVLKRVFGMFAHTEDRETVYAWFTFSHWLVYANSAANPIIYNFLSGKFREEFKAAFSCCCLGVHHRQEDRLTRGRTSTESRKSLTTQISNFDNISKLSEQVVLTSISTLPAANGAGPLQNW
Method in brief: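 CHO cells stably expressing human OX1R or OX2R, loaded with fluo-4 AM (3 μM, 5 mM probenecid) for 50 min at 37 °C, then 30 min at RT. Antagonist preincubated 120 min before 3 nM orexin-A; FLIPR fluorescence peak height vs vehicle gives IC50, possibly normalized to on-plate reference; geometric mean of repeats.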

[3] = target: T3, human k-opioid receptor (kOR) (Homo sapiens, UniProt P41145); assay: Human k-opioid (KOP) receptor (agonist radioligand [3H]U-69593) binding assay, transfected RBL cell membranes
T3 construct: expressed in transfected cells; host or cells: RBL cells (membrane homogenates)
T3 sequence (P41145 whole entry): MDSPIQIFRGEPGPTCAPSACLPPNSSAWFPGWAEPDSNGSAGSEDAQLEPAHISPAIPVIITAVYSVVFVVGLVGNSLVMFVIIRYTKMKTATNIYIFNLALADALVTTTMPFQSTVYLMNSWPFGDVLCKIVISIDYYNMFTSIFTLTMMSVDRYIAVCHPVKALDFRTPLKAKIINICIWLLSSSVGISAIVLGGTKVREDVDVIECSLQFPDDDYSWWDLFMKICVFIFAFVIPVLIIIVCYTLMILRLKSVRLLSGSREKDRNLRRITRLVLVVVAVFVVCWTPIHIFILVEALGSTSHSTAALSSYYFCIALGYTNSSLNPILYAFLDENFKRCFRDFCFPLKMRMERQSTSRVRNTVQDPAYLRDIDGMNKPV
Method in brief: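 Membranes from transfected RBL cells (~80 μg protein) incubated 60 min at 22° C with 0.5 nM [3H]U-69593 in 50 mM Tris-HCl pH 7.4, 10 mM MgCl2, 1 mM EDTA. Nonspecific binding defined with 10 μM naloxone; filtration and scintillation counting. Values are percent inhibition of specific radioligand binding.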

[4] = target: T3, human k-opioid receptor (kOR); assay: as above; conditions: second value of IC50/Ki cell

[2H]C1([2H])CC[C@@]([2H])(Cn2ccc(-c3ccc(F)cc3)n2)N1C(=O)c1c(-c2ccccc2)nc2ccc(F)cn12 [Example 177]
IC50 ([1]; first value of IC50/Kb cell): 20 nM | inhibition at 1 µM ([1]; read-out: OX1R, % Inh. @ 1 uM): 95% | Kb ([1]; second value of IC50/Kb cell): 4 nM | IC50 ([2]; first value of IC50/Kb cell): 371 nM | inhibition at 1 µM ([2]; read-out: OX2R, % Inh. @ 1 uM): 85% | Kb ([2]; second value of IC50/Kb cell): 64 nM | IC50 ([3]; first value of IC50/Ki cell): 90 nM | inhibition at 1 µM ([3]; read-out: KOR % Inh. @ 1 uM): 91% | Ki [4]: 49 nM
